Results on four compounds are retold here after patent publication US4820717A, “Antimicrobial aromatic derivatives substituted by an (omega amino) alkanol group and compositions containing them” (priority 1985, dated 1989).

One data set concerns lymphoma cells of mice. The note with it: cited from earlier work.
Data set [1] relates to Escherichia Coli CNCM 54125. Description: Bactericidal activity (MBC), strain 1. Type of data set: cell-based. The note with it: 20 min, strain 1, 20 minutes of contact, read-out: Minimum bactericidal concentration (MBC). The text has this: (§1) The bactericidal activity of the products according to the invention has been analyzed on various strains by the method described hereafter:
(§2) A bacterial inoculum is placed in contact with different dilutions of the product to be tested, and this for a limited period of time. At the end of contact, an aliquot part of the mixture bacterial suspension/product is deposited on the surface of an agar culture medium containing an agent neutralizing the antibacterial activity of the product. The bactericidal concentration retained is the smallest concentration of the product from which bacteria stop growing. Said concentration is expressed in μg/ml.
(§3) The bacterial strains selected for the analysis are:
1--Escherichia Coli CNCM 54125;
(§4) The second strain is supported on a Worgel Fergusson medium, the other strains being supported on Tryptic Soy Agar-Difco (TSA) commercialized by Difco.
(§5) After a 24-hour culture period at 37° C., the microbial growth is collected by means of glass beads and of 10 ml of diluent containing 1 g of tryptone and 8.5 g of sodium chloride in 1000 ml of distilled water. The formed suspension is stirred and the percentage of light transmission at 620 nm is measured with a spectrophotometer:
(§6) The bacterial inoculum corresponds to a 1/20th dilution of this bacterial suspension.
(§7) Plates equipped with cupules receive different dilutions of the product to be analyzed. These dilutions are placed in contact with the different bacterial suspensions by means of a multiple-center inoculator. After 20 minutes of contact, aliquot parts are transferred by means of said inoculator on the surface of an agar medium (TSA) in Petri dishes, containing an activity-neutralizing agent, namely 20 g of lubrol W, 25 g of Tween 80 and 2.5 g of sodium thiosulfate in 1000 ml of TSA (Difco). The efficiency of the neutralizing agent is controlled for each product to be analyzed by depositing on the surface of the culture medium an aliquot part of the dilution of the product to be analyzed. After drying, the corresponding inoculum is deposited in the same place. An inoculum control is performed on an agar medium with or without neutralizing agent. Readings are taken after 48 hours of incubation at 37° C.

The test system of data set [2] is Encapsulated klebsiella pneumoniae R030. In words: Bactericidal activity (MBC), strain 2. Type of data set: cell-based. The note with it: 20 min, strain 2, 20 minutes of contact, read-out: Minimum bactericidal concentration (MBC).
From the text: as §1, §2, §3
2--Encapsulated klebsiella pneumoniae R030;
as §4, §5, §6, §7

The test system of data set [3] is Pseudomonas aeruginosa CNCM A22. Description: Bactericidal activity (MBC), strain 3. Type of data set: cell-based. The note with it: CNCMA22, 20 min, strain 3, 20 minutes of contact, read-out: Minimum bactericidal concentration (MBC).
From the text: as §1, §2, §3
3--Pseudomonas aeruginosa CNCM A22;
as §4, §5, §6, §7

The subject of data set [4] is Streptococcus faecalis CNCM 5855. In words: Bactericidal activity (MBC), strain 4. It is filed as cell-based. The note with it: Enterococcus faecalis, CNCM5855, 20 min; strain 4, 20 minutes of contact; read-out: Minimum bactericidal concentration (MBC).
From the text: as §1, §2, §3
4--Streptococcus faecalis CNCM 5855;
as §4, §5, §6, §7

In data set [5] the test system is Staphylococcus aureus CNCM 53154. Description: Bactericidal activity (MBC), strain 5. The note with it: CNCM53154, 20 min, strain 5, 20 minutes of contact, read-out: Minimum bactericidal concentration (MBC). It is filed as cell-based.
From the text: as §1, §2, §3
5--Staphylococcus aureus CNCM 53154.
as §4, §5, §6, §7

Data set [6] has as its system Candida albicans CNCM 1180. Description: Antifungal activity (MFC), strain 1. Type of data set: cell-based. The note with it: 20 min; yeast strain 1; read-out: Minimum fongicidal concentration (MFC).
From the text: as §2, §7
(§8) The antifungal activity of the products according to the invention was also determined with the aforedescribed method.
(§9) The fungal strains selected for the analysis are:
1--Candida albicans CNCM 1180;
(§10) These strains are supported on a Sabouraud Dextrose agar medium commercialized by Difco; the technique used is the same as that used in the analysis of the antibacterial activity. After 48 hours of culture at 37° C., the microbial growth is collected with glass beads and 5 ml of diluent containing 1 g of tryptone and 8.5 g of sodium chloride in 1000 ml of distilled water; 5 ml of the diluent are then added. […] A 1/100th dilution of this suspension, observed between slides under a microscope 40-lens, should show 10 cells per frame, this corresponding to 1,000,000 yeasts per ml.

Another data set concerns Candida tropicalis 3834. In words: Antifungal activity (MFC), strain 2. Type of data set: cell-based. The note with it: 20 min; yeast strain 2; read-out: Minimum fongicidal concentration (MFC).
From the text: as §2, §7, §8, §9
2--Candida tropicalis 3834;
as §10

For the next data set, the system named is Candida parakruzei 3918. In words: Antifungal activity (MFC), strain 3. Type of data set: cell-based. The note with it: 20 min; yeast strain 3; read-out: Minimum fongicidal concentration (MFC).
From the text: as §2, §7, §8, §9
3--Candida parakruzei 3918;
as §10

The subject of data set [7] is Torulopsis glabrata 072023. In words: Antifungal activity (MFC), strain 4. The note with it: 20 min; yeast strain 4; read-out: Minimum fongicidal concentration (MFC). It is filed as cell-based.
From the text: as §2, §7, §8, §9, §10

Data set [8] has as its system guinea-pig skin. In words: Preliminary skin tolerance in the guinea-pig. Type of data set: in vivo. The note with it: 0.2 ml on shorn skin once a day, six days out of seven, three weeks. On the procedure:
(§11) The tolerance of the products according to the invention was tested in the guinea-pig. The animals are shorn on both sides of the middle line of the back, the shearing being kept up every other day. Batches of 6 animals receive, on the shorn part, 0.2 ml of an aqueous or alcoholic solution of the product according to the invention. When these products are in alcoholic solution, one control batch of animals receives the alcohol on one side.
To study the preliminary skin tolerance, the treatment is applied once a day, six days out of seven, for three weeks. The observations made of the skin are concerned with the presence of erythema, skin eruptions or hyperkeratosis, the intensity of which is graduated according to a preset scale.

In data set [9] the test system is guinea-pig skin. In words: Skin sensitization test in the guinea-pig. Type of data set: in vivo. The note with it: one week treatment after two weeks' rest. On the procedure:
as §11, with “side. The skin sensitization test is performed on the same animals after two weeks' rest. The treatment lasts one week, it is identical to the preceding one. The evaluation is based on the same criteria and on the same scale as used to determine the local tolerance.” for “side.”

For another data set, the system named is guinea-pig. In words: Phototoxic or photoallergic effect on the guinea-pig. It is filed as in vivo. The text has this:
The products according to the invention have also been tested for a phototoxic or photoallergic effect on the guina-pig. The technique used is that of J. Unkovic, G. Mazue and J. Girard, in "Sciences et Techniques de l'Animal de Laboratoire", 1983, 8 (3), 149-160. This is an adaptation of the techniques described by L. C. Harber et al., Arch. Dermatol., 1967, 96, 646-656 and L. J. Vinson et al., Arch. Dermatol., 1966, 17, 123-130.

Data set [10] is described as follows: Acute toxicity by oral route in mice. The note with it: mouse, in vivo, per os, male CD1 mice, 14 days observation. How it is done:
Acute toxicity was tested by oral route in mice. This test was carried out with male mice of CD1 strain, obtained from the Charles Reever breeding farm. Each batch was composed of 5 animals of body weight varying between 24 and 30 g kept in the same cage. The animals were kept fasting for 6 hours before the treatment. For every test, the product, placed in suspension in a 10% solution of gum arabic, was administered by forcible feeding with an oesophageal probe. Food was then served to the animals 4 hours after the forcible feeding and the animals were kept under observation for a period of 14 days after the administration. During that period, the death rate is recorded for each batch of animals used in the experiment and, wherever possible, the LD50 is determined by the method of J. T. Litchfield and F. Wilcoxon, J. Pharmacol. 1949, 95, 99-113.
The results are given in mg of substance tested per kg of body weight. They are compiled in Table III below.

One may read the LD50 as the dose expected to kill half of the subjects tested. Read a low LD50 as a more toxic substance.

Values after ≈ are worked out from the molar mass of the structure shown.

In the case of `OCCc1ccc2ccccc2c1` [2-naphtyl ethanol], the “effect on the cellular division of the lymphoma cells” value in the data set on lymphoma cells of mice was “inhibits the cellular division of the lymphoma cells of mice”.

Consider `CC(C)N(CCC(CO)c1cccc2ccccc12)Cc1ccccc1` (stereo not shown) [SR 43 292 A], for which the MBC in data set [1], in data set [2], in data set [3], in [4] and in [5] was 300 µg/mL (≈ 863 µM) each time. Besides, the MFC in data set [6] was determined as 1000 µg/mL (≈ 2880 µM); in the data set on Candida tropicalis 3834, 1000 µg/mL (≈ 2880 µM); in the data set on Candida parakruzei 3918, 1000 µg/mL (≈ 2880 µM); in data set [7], 2000 µg/mL (≈ 5760 µM). Further, the “products found to have a bad tolerance” value with guinea-pig skin [8] is on record as “None”. For the same compound, the “products found to have a sensibilizing effect” value with guinea-pig skin [9] is recorded as “None”. For the same compound, the “products found to have a phototoxic or photoallergic effect” value in the data set on guinea-pig is “None”. The compound also registered an LD50 at 336 h in [10] of 500 to 750 mg/kg.

Turning to `CC1CCN(CCCCCCC(CO)c2cccc3ccccc23)CC1` (stereo not shown) [SR 43 293 A], the MBC in data set [1], in [2], in data set [3], in data set [4] and in data set [5] was 200 µg/mL (≈ 566 µM) in each case. The MFC in [6] was 500 µg/mL (≈ 1410 µM); with Candida tropicalis 3834, 200 µg/mL (≈ 566 µM); in the data set with Candida parakruzei 3918 it was 500 µg/mL (≈ 1410 µM); in [7] it was 1000 µg/mL (≈ 2830 µM). Further, the “products found to have a bad tolerance” value in the data set on guinea-pig skin [8] is “None”. The “products found to have a sensibilizing effect” value in the data set on guinea-pig skin [9] is “None”. Besides, in the data set with guinea-pig, the “products found to have a phototoxic or photoallergic effect” value is given as “None”. The same compound registered an LD50 at 336 h in [10] of at most 250 mg/kg.

With `OCC(CCN1CCC(Cc2ccccc2)CC1)c1cccc2ccccc12` (stereo not shown) [SR 43 383 A], the MBC in data set [1], in data set [2], in data set [3], in data set [4] and in data set [5] was 100 µg/mL (≈ 268 µM) throughout. The MFC in [6] was found to be 100 µg/mL (≈ 268 µM); in the data set on Candida tropicalis 3834, 100 µg/mL (≈ 268 µM); in the data set with Candida parakruzei 3918, 100 µg/mL (≈ 268 µM); in [7], 500 µg/mL (≈ 1340 µM). In the data set on guinea-pig skin [8], the “products found to have a bad tolerance” value is given as “None”. The “products found to have a sensibilizing effect” value with guinea-pig skin [9] is recorded as “None”. Moreover, the “products found to have a phototoxic or photoallergic effect” value in the data set with guinea-pig is listed as “None”. This compound also came in with an LD50 at 336 h in [10] of 1180 mg/kg.
